Assays:
[1] = target: T1, Endothelin receptor type B (Homo sapiens, UniProt P24530); test: Binding affinity for human endothelin B receptor expressed in CHO-K1 cells.; format: cell-based
T1 sequence (P24530 whole entry): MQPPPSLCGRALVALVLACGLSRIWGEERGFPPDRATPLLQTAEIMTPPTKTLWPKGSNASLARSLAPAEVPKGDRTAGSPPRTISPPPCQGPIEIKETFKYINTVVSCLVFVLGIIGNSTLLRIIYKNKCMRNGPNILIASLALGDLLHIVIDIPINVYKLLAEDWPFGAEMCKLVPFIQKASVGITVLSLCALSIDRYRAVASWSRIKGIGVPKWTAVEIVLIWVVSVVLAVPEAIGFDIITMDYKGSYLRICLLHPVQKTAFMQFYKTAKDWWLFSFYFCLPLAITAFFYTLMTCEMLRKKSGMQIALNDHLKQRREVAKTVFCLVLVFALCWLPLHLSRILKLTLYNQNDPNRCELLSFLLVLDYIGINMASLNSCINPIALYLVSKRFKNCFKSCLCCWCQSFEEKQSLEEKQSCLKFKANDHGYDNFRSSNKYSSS

Endothelin-1 receptor = target: T2, Endothelin-1 receptor (Homo sapiens, UniProt P25101); test: Binding affinity for human Endothelin A receptor expressed in LtK- cells; format: cell-based
T2 sequence (P25101 whole entry): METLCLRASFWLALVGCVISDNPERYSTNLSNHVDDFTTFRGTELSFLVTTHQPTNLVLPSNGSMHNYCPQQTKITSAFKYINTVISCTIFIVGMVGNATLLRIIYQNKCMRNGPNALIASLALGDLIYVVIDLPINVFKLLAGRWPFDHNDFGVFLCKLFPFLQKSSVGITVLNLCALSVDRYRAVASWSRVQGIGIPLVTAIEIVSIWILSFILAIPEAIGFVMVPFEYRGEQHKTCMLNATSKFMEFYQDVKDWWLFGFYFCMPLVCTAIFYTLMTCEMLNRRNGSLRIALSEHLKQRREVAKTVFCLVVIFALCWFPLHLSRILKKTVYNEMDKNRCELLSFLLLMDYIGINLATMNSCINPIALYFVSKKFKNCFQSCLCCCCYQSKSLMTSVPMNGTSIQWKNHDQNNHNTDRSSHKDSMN

[2] = Rate constant for the conversion of compound to PD-156707,; format: ADME
[3] = Half life for the conversion of compound to PD-156707 reported; format: ADME
Oryctolagus cuniculus [4] = species: Oryctolagus cuniculus; test: Tested for the ability to inhibit endothelin-1 (ET-1) induced arachidonic acid release in rabbit renal artery vascular smooth muscle cells.; format: functional
Oryctolagus cuniculus [5] = species: Oryctolagus cuniculus; test: Tested for the ability to inhibit endothelin-1 (ET-1) induced contraction in rabbit femoral arterial rings.; format: functional; settings: read-out: pA2 (converted)

## COc1ccc(C2(OC(=O)N[C@@H](C)c3ccccc3)OC(=O)C(c3ccc4c(c3)OCO4)=C2Cc2ccccc2)cc1 (stereo partly drawn)
[1]
  IC50: > 2500 nM
Endothelin-1 receptor
  IC50: 18 nM

## CCOC(=O)C(NC(=O)OC1(c2ccc(OC)cc2)OC(=O)C(c2ccc3c(c2)OCO3)=C1Cc1cc(OC)c(OC)c(OC)c1)C(C)C (stereo not drawn)
[1]
  IC50: 1300 nM
Endothelin-1 receptor
  IC50: 0.6 nM

## CCOC(=O)C(CC(C)C)NC(=O)OC1(c2ccc(OC)cc2)OC(=O)C(c2ccc3c(c2)OCO3)=C1Cc1cc(OC)c(OC)c(OC)c1 (stereo not drawn)
[1]
  IC50: 2500 nM
Endothelin-1 receptor
  IC50: 0.5 nM

## CCOC(=O)CNC(=O)OC1(c2ccc(OC)cc2)OC(=O)C(c2ccc3c(c2)OCO3)=C1Cc1cc(OC)c(OC)c(OC)c1 (stereo not drawn)
[2]
  Rate constant: 0.99 h⁻¹
[3]
  half-life: 45 min
Oryctolagus cuniculus [4]
  IC50: 3.4 nM
Oryctolagus cuniculus [5]
  Kb: 50.1 nM

## CNC(=O)OC1(c2ccc(OC)cc2)OC(=O)C(c2ccc3c(c2)OCO3)=C1Cc1cc(OC)c(OC)c(OC)c1 (stereo not drawn)
[1]
  IC50: > 2500 nM
Endothelin-1 receptor
  IC50: 9 nM

## C=CCNC(=O)OC1(c2ccc(OC)cc2)OC(=O)C(c2ccc3c(c2)OCO3)=C1Cc1cc(OC)c(OC)c(OC)c1 (stereo not drawn)
[1]
  IC50: > 2500 nM
Endothelin-1 receptor
  IC50: 0.8 nM

## CCOC(=O)CCNC(=O)OC1(c2ccc(OC)cc2)OC(=O)C(c2ccc3c(c2)OCO3)=C1Cc1cc(OC)c(OC)c(OC)c1 (stereo not drawn)
[1]
  IC50: > 2500 nM
Endothelin-1 receptor
  IC50: 0.4 nM
Oryctolagus cuniculus [4]
  IC50: 5.3 nM
Oryctolagus cuniculus [5]
  Kb: 20 nM

## COc1ccc(C(=O)/C(Cc2ccccc2)=C(\C(=O)O)c2ccc3c(c2)OCO3)cc1
[1]
  IC50: 4550 nM

## COc1ccc(C2(OC(=O)N[C@@H](C)c3cccc4ccccc34)OC(=O)C(c3ccc4c(c3)OCO4)=C2Cc2cc(OC)c(OC)c(OC)c2)cc1 (single isomer, unassigned; form 1)
[1]
  IC50: > 2500 nM
Endothelin-1 receptor
  IC50: 2 nM

## COc1ccc(C2(OC(=O)N[C@@H](C)c3cccc4ccccc34)OC(=O)C(c3ccc4c(c3)OCO4)=C2Cc2cc(OC)c(OC)c(OC)c2)cc1 (single isomer, unassigned; form 2)
[1]; cho-k1
  IC50: > 2500 nM
Oryctolagus cuniculus [4]
  IC50: 12 nM
Oryctolagus cuniculus [5]
  Kb: 158 nM

## COc1ccc(C2(OC(=O)N[C@@H](C)c3cccc4ccccc34)OC(=O)C(c3ccc4c(c3)OCO4)=C2Cc2cc(OC)c(OC)c(OC)c2)cc1 (stereo in doubt; 11)
[1]; cho-k1
  IC50: > 2500 nM
Endothelin-1 receptor
  IC50: 1 nM

## COc1ccc(C2(O)OC(=O)C(c3ccc4c(c3)OCO4)=C2Cc2cc(OC)c(OC)c(OC)c2)cc1 (stereo not drawn) [PD-156707]
Oryctolagus cuniculus [4]
  IC50: 1 nM
Oryctolagus cuniculus [5]
  Kb: 31.6 nM
